From US20230158041A1, “METHODS AND COMPOSITIONS FOR TREATING AUTOSOMAL DOMINANT POLYCYSTIC KIDNEY DISEASE” (OTSUKA PHARMACEUTICAL CO.,LTD., priority 2021, published 2023)
pIC50: −log10 of the molar value. “Also recorded” adds a separate entry of the source. Marks after values point to notes of the source that are not given here. Each block holds one compound with its values, some of them ahead of it.

Tests used:
(OAT)3 [1] = target: T1, (OAT)3 (Homo sapiens, UniProt Q8TCC7); assay: Estrone 3-sulfate transport inhibition in HEK293 cells stably expressing human (OAT)3; type: cell-based; parameters: host or cells: HEK293
T1 sequence (Q8TCC7 1-542): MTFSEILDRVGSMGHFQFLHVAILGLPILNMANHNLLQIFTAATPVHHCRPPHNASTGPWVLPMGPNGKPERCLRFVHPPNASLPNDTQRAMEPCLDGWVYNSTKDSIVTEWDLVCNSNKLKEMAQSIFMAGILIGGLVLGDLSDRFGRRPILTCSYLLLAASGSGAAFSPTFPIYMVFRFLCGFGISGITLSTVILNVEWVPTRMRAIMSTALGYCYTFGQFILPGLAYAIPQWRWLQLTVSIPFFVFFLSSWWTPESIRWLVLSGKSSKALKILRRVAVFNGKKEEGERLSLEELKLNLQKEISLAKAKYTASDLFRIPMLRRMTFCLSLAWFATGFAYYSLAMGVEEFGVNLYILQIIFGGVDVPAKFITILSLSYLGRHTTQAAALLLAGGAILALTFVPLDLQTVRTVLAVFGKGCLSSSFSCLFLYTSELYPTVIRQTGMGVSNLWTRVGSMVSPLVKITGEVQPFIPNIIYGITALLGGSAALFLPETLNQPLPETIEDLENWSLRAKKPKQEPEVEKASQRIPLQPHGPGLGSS
Protocol: (OAT)3: Estrone 3-sulfate transport was evaluated in HEK293 cells stably expressing human (OAT)3 (kit with ready to use 24 well plates were obtained from GenoMembrane). […] DM-4103 concentrations of 0.064, 0.32, 1.6, 8.0, 40, and 200 μM were tested.

plasma protein = assay: DM-4103 plasma protein binding, micropartition device (Centrifree YM-30) with HPLC-MS/MS; type: in vitro ADME
Protocol: The effect of six other highly plasma protein bound compounds on DM-4103 binding was also evaluated. […] No potential for interaction at either transporter would have been predicted if a free fraction of 0.1% had been used, consistent with the clinical findings.

(OAT)3 [2] = target: T1, (OAT)3; assay: Trial 2: (OAT)3 inhibition, furosemide in presence of DM-4103 vs. furosemide alone; type: in vivo; parameters: endogenous in cells; host or cells: healthy human subjects, in vivo; conditions: furosemide 48 hours following 7 days of 300 mg tolvaptan q.d.
human (OATP)1B1 = target: T2, human (OATP)1B1 (Homo sapiens, UniProt Q9Y6L6)
T2 sequence (Q9Y6L6 1-691): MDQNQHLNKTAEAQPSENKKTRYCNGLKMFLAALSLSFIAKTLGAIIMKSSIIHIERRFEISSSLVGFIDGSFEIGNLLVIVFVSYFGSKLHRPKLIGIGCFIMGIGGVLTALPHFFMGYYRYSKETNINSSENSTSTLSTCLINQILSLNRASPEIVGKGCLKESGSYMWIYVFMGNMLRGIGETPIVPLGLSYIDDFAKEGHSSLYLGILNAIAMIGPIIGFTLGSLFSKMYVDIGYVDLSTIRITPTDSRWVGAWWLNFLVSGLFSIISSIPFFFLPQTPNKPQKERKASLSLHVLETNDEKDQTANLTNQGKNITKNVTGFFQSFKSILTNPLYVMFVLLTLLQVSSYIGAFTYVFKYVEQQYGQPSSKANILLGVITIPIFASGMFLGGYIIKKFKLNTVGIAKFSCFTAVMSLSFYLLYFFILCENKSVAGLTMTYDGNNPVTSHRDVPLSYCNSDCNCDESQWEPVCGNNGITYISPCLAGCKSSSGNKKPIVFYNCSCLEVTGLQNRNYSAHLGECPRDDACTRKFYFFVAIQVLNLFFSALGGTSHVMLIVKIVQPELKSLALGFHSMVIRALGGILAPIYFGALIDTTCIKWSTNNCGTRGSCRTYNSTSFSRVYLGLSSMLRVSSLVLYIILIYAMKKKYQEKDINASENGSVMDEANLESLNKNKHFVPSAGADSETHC
Protocol: (OATP)1B1: Estradiol 17β-D-glucuronide transport was evaluated in HEK293 cells stably expressing human (OATP)1B1 (kit with ready to use 24 well plates were obtained from GenoMembrane). […] DM-4103 concentrations of 0.064, 0.32, 1.6, 8.0, 40, and 200 μM were tested.

[3] = Earlier clinical data for tolvaptan and DM-4103 (PK, tolerability; data on file); type: in vivo, human
[4] = Trial 1: plasma rosuvastatin PK, tolvaptan and DM-4103 plasma concentrations, adverse events in healthy subjects
Protocol: (§1) Trial 1 was designed as an open-label, 3-period, sequential crossover. […] On days 7 to 13, 300 mg tolvaptan was administered q.d.
Doses on pharmacokinetic (PK) sampling days were administered in the fasted state with 240 ml of room temperature still water. No food was allowed from 10 h prior to dosing until lunch was given following the 4 h post-dose assessments; water was available ad libitum except for +/−2 h around dosing. On non-PK sampling days, tolvaptan was administered at least 30 min prior to breakfast. Safety was evaluated by laboratory values, vital signs, and 12-lead electrocardiogram (ECG) at screening, day 1, and discharge (no ECG), and adverse event reports.
A 90 mg dose of tolvaptan was chosen as it is the highest dose administered at any given time in the treatment of ADPKD.
The assay used to determine plasma tolvaptan concentrations also included DM-4103 as a standard. The precursor→production was m/z 479→252.

[5] = in vivo; cited from earlier work
[6] = Phase III ADPKD trials: statin use with tolvaptan; type: in vivo, human; conditions: subjects taking tolvaptan alone or tolvaptan plus statins
[7] = predicted; cited from earlier work
BCRP [8] = target: T3, BCRP (Homo sapiens, UniProt Q9UNQ0); assay: Trial 1: BCRP inhibition, rosuvastatin + tolvaptan vs. rosuvastatin alone; type: in vivo; parameters: endogenous in cells; host or cells: healthy human subjects, in vivo; conditions: 90 mg tolvaptan with 5 mg rosuvastatin calcium
T3 sequence (Q9UNQ0 1-655): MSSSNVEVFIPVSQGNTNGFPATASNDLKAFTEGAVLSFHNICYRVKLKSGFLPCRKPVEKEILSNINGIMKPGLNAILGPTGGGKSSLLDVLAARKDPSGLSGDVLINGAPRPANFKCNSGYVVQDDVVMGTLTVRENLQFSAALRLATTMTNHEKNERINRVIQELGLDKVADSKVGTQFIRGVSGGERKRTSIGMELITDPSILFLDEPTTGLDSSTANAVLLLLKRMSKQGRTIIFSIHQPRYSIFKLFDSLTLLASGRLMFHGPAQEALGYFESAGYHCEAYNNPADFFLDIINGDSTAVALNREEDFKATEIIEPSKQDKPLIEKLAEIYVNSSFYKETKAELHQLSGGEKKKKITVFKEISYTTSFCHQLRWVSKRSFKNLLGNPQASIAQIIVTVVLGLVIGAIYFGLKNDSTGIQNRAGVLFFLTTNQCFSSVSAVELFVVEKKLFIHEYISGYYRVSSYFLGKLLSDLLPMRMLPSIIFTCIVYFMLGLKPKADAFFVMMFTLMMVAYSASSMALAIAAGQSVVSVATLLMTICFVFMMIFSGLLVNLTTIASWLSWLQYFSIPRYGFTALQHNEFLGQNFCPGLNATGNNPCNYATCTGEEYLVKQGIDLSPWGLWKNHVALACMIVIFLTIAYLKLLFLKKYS
Protocol: as §1
An analysis of variance with a factor of period and random effect of subjects was performed on the natural-log transformed PK parameters using the MIXED procedure in SAS. From each analysis, the least square means, their difference, and the 90% CI for their difference were derived. Then, the anti-logs of the difference and the confidence limits provided the estimate and 90% CI for the ratio of the geometric means of the test treatment to the reference treatment. Only subjects with values in both treatments were used in the analysis.

[9] = target: T4, sodium-dependent tauro-cholate co-transporting polypeptide (NTCP) (Homo sapiens, UniProt Q14973); conditions: cited from earlier work
T4 sequence (Q14973 1-349): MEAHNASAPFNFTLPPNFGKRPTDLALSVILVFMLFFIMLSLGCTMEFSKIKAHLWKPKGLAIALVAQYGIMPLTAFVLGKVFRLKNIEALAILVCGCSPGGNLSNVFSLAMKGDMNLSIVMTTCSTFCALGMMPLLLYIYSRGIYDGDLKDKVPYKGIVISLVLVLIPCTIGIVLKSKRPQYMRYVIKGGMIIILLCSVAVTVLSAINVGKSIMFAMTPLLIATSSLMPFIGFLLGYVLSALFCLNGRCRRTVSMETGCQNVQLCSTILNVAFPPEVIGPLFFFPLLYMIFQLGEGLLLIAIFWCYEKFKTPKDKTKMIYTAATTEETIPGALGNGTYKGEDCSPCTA

Tolvaptan solubility = type: physicochemical; conditions: pH independent
[10] = 300 mg tolvaptan for 5 days, healthy subjects; cited from earlier work
BCRP [11] = target: T3, BCRP
Protocol: BCRP: Prazosin transport was evaluated in MDCKII BCRP-expressing cells (obtained from SOLVO Biotechnology) precultured for six to eight days.

[12] = tested on: sandwich-cultured human hepatocytes; conditions: cited from earlier work
[13] = Phase II and III congestive heart failure trials: tolvaptan with furosemide; type: in vivo, human; conditions: tolvaptan+furosemide compared with placebo+furosemide

pIC50 ((OAT)3 [1]; (OAT)3 overexpressing HEK293 cells, read-out: IC50 estimate, inhibition of estrone 3-sulfate transport): 6.37 | DM-4103 concentration at which the ratio is equal to 0.1 ((OAT)3 [1]; Imax,u/IC50 for (OAT)3, fu,p 0.01): ~2034 ng/mL | inhibitor of (OAT)3 in vitro ((OAT)3 [1]; in vitro): inhibitor | plasma protein binding (PPB) (plasma protein): greater than 99.8% | DM-4103 binding in presence of six other highly plasma protein bound compounds (plasma protein; all samples, no interactions detected): greater than 99.8% | pIC50 (human (OATP)1B1): 6.59 | inhibitor of (OATP)1B1 in vitro (human (OATP)1B1): inhibitor
SMILES: Cc1ccccc1C(=O)Nc1ccc(C(=O)Nc2ccc(Cl)cc2C(=O)CCC(=O)O)c(C)c1 [DM-4103]
inhibition of (OAT)3 in healthy subjects ((OAT)3 [2]): No inhibition; also recorded: not an inhibitor | plasma concentrations ([3]; first 2 hours following a 90 mg tolvaptan dose): less than 100 ng/ml | elimination half-life ([3]; human, in vivo): ~180 h | time to steady-state concentrations after the start of tolvaptan dosing ([3]; human, in vivo): ~8 weeks

SMILES: CCCN(CCC)S(=O)(=O)c1ccc(C(=O)O)cc1 [Probenecid]
inhibition at 30 µM ((OAT)3 [1]; HEK293, read-out: inhibition of estrone 3-sulfate transport): 91.1%

SMILES: CC(C)c1nc(N(C)S(C)(=O)=O)nc(-c2ccc(F)cc2)c1/C=C/[C@@H](O)C[C@@H](O)CC(=O)O [rosuvastatin]
Tmax ([4]; 5 mg ROS in presence of DM-4103, median): 4.00 h | Tmax ([4]; 5 mg rosuvastatin + 90 mg tolvaptan, median): 3.03 h | TEAE incidence: nausea ([4]; human, in vivo): 12.5% | AUCt ([4]; human, in vivo, 5 mg): 18.9 ng·h/mL | AUC∞ ([4]; human, in vivo, 5 mg): 20.3-36.0** ng*h/ml | Cmax ([4]; human, in vivo, 5 mg): 2.81 ng/mL | Tmax ([4]; human, in vivo, 5 mg): 3.50 h | t1/2, z ([4]; human, in vivo, 5 mg): 2.4-4.3** h | observed increases in rosuvastatin maximal peak plasma concentration (Cmax) [5]: up to 11 fold

inhibition of BCRP in healthy subjects (BCRP [8]): No clinically-relevant inhibition | solubility (Tolvaptan solubility): about 0.01 g/250 ml | pIC50 (BCRP [11]): 5.08 | Igut/IC50 (printed as predicted Ki) (BCRP [11]; human): 96.4
SMILES: Cc1ccccc1C(=O)Nc1ccc(C(=O)N2CCCC(O)c3cc(Cl)ccc32)c(C)c1 (stereo not shown) [tolvaptan, 7-chloro-5-hydroxy-1-[2-methyl-4-(2-methylbenzoylamino)benzoyl]-2,3,4,5-tetrahydro-1H-benzoazepine]
statin use or incidences of statin-related adverse events [6]: no differences | liver:blood ratio [7]: 38.76 | NTCP IC50 value relative to Cmax [9]: higher than Cmax | inhibitor of NTCP [9]: inhibitor of NTCP | safety and tolerability [10]: safe and well-tolerated | accumulation in sandwich-cultured human hepatocytes [12]: at least 10 fold | incidence of adverse events [13]: similar | half-life ([3]; human, in vivo): ~3.5 h | accumulation ([3]; steady-state concentrations achieved on day 1): no accumulation
